For 20 molecules, Ki results are on record in patent publication US11203574B2 (BioCryst Pharmaceuticals, Inc., priority 2014, dated 2021).

In this assay the target is human plasma kallikrein (Homo sapiens (Human), UniProt P03952). Nature of the assay: Plasma kallikrein activity assay (chromogenic substrate S2302). Type of assay: biochemical. The conditions noted are these: 2 nM kallikrein, 80 μM S2302, 30° C., pH 7.8; Ki by Cheng-Prusoff equation; values given as ranges; read-out: Ki.
Sequence of human plasma kallikrein (P03952 whole entry, looked up): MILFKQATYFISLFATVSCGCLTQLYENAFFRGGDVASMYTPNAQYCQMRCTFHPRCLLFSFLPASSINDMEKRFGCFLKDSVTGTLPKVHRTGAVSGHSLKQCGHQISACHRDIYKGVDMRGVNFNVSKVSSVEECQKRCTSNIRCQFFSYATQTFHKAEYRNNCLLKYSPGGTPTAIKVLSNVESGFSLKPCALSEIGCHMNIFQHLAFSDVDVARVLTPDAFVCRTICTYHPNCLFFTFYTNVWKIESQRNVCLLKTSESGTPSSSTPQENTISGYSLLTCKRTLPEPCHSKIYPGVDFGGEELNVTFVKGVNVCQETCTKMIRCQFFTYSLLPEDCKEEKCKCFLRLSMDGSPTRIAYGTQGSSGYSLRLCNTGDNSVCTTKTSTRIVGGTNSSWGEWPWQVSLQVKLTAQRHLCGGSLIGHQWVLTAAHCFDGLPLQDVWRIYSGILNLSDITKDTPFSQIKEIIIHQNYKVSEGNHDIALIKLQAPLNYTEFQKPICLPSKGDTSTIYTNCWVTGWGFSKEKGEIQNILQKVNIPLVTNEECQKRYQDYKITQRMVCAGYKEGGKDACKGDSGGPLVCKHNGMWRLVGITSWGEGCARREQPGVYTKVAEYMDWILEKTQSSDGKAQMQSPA
Sequence of human plasma kallikrein (P03952 whole entry partner, looked up): as the sequence (P03952 whole entry, looked up) above

Experimental: Plasma Kallikrein Activity Assay.
The effect of compounds of the invention on human plasma kallikrein activity was determined using the chromogenic substrates (DiaPharma Group, Inc., West Chester, Ohio, USA). In these experiments, 2 nM kallikrein (Enzyme Research Laboratories, South Bend, Ind., USA) was incubated with 80 μM S2302 (H-D-Pro-Phe-Arg-p-nitroaniline) in the absence or presence of increasing concentrations of compounds of the invention in a final volume of 200 μL Tris-HCl buffer (200 mM NaCl; mM CaCl2; 50 mM Tris-HCl, pH 7.8).
Data were analyzed using SigmaPlot software (Systat Software, Inc., San Jose, Calif., USA) (Four Parameter Logistic Curve).

One may read the Ki as the equilibrium dissociation constant of an inhibitor or competing ligand from its target. Regarding `NCc1cccc(-n2nc(C(F)(F)F)cc2C(=O)Nc2cc(C(N)(CCC3CC3)c3cccc(C(N)=O)c3)ccc2F)c1` (single isomer, unassigned; (-)) [225a, (−)-N-(5-(1-amino-1-(3-carbamoylphenyl)-3-cyclopropylpropyl)-2-fluorophenyl)-1-(3-(aminomethyl)phenyl)-3-(trifluoromethyl)-1H-pyrazole-5-carboxamide], the Ki is 0.1 to 50 nM.

As for `CCCN(c1ccccc1)c1cccc(NC(=O)c2cc(C(F)(F)F)nn2-c2cccc(CN)c2)c1` [27f, 1-(3-(aminomethyl)phenyl)-N-(3-(phenyl(propyl)amino)phenyl)-3-(trifluoromethyl)-1H-pyrazole-5-carboxamide], the Ki fell in the range of 50 to 100 nM.

As for `NCc1cccc(-n2nc(C(F)(F)F)cc2C(=O)Nc2cccc(C(NCC3CC3)c3cccc4ccccc34)c2)c1` (centres unmarked) [129f, 1-(3-(aminomethyl)phenyl)-N-(3-((cyclopropylmethylamino)(naphthalen-1-yl)methyl)phenyl)-3-(trifluoromethyl)-1H-pyrazole-5-carboxamide], the Ki fell in the range of 0.1 to 50 nM.

On to `NCc1cccc(-n2nc(C(F)(F)F)cc2C(=O)Nc2cc(C(NCC3CC3)c3cccnc3)ccc2Cl)c1` (centres unmarked) [96f, 1-(3-(Aminomethyl)phenyl)-N-(2-chloro-5-((cyclopropylmethylamino)(pyridin-3-yl)methyl)phenyl)-3-(trifluoromethyl)-1H-pyrazole-5-carboxamide], for which the Ki fell in the range of 0.1 to 50 nM.

As for `NCc1cccc(-n2nc(C(F)(F)F)cc2C(=O)Nc2cc(C(=CCC3CC3)c3ccccc3)ccc2F)c1` [252c, 1-(3-(aminomethyl)phenyl)-N-(5-(3-cyclopropyl-1-phenylprop-1-enyl)-2-fluorophenyl)-3-(trifluoromethyl)-1H-pyrazole-5-carboxamide], the Ki was in the range of 0.1 to 50 nM.

With `CS(=O)(=O)c1cccc(C(NCC2CC2)c2cccc(NC(=O)c3cc(C(F)(F)F)nn3-c3cccc(CN)c3)c2)c1` (centres unmarked) [114f, 1-(3-(aminomethyl)phenyl)-N-(3-((cyclopropylmethylamino)(3-(methylsulfonyl)phenyl)methyl)phenyl)-3-(trifluoromethyl)-1H-pyrazole-5-carboxamide], the Ki fell in the range of 0.1 to 50 nM.

With `NCc1cccc(-n2nc(C(F)(F)F)cc2C(=O)Nc2cccc(C(OCC3CC3)c3ccccn3)c2)c1` (racemic) [43f, 1-(3-(aminomethyl)phenyl)-N-(3-((cyclopropylmethoxy)(pyridin-2-yl)methyl)-phenyl)-3-(trifluoromethyl)-1H-pyrazole-5-carboxamide], the Ki fell in the range of 0.1 to 50 nM.

As to `Nc1nccc2ccc(-n3nc(C(F)(F)F)cc3C(=O)Nc3cc(C(CCC4CC4)n4ccncc4=O)ccc3F)cc12` (centres unmarked) [259d, 1-(1-aminoisoquinolin-7-yl)-N-(5-(3-cyclopropyl-1-(2-oxopyrazin-1(2H)-yl)propyl)-2-fluorophenyl)-3-(trifluoromethyl)-1H-pyrazole-5-carboxamide], the Ki is 0.1 to 50 nM.

Consider `NCc1cccc(-n2nc(C(F)(F)F)cc2C(=O)Nc2cccc(C(NC3CCC3)c3ccccc3)c2)c1` (centres unmarked) [188b, 1-(3-(Aminomethyl)phenyl)-N-(3-((cyclobutylamino)(phenyl)methyl)phenyl)-3-(trifluoromethyl)-1H-pyrazole-5-carboxamide], for which the Ki lay in the range of 0.1 to 50 nM.

In the case of `COc1cccc(C(NCC2CC2)c2cccc(NC(=O)c3cc(C(F)(F)F)nn3-c3cccc(CN)c3)c2)c1O` (centres unmarked) [151g, 1-(3-(Aminomethyl)phenyl)-N-(3-((cyclopropylmethylamino)(2-hydroxy-3-methoxyphenyl)methyl)phenyl)-3-(trifluoromethyl)-1H-pyrazole-5-carboxamide], the Ki is 0.1 to 50 nM.

`Cc1ccc(C)c(C(NCC2CC2)c2cccc(NC(=O)c3cc(C(F)(F)F)nn3-c3cccc(CN)c3)c2)c1` (centres unmarked) [202f, 1-(3-(aminomethyl)phenyl)-N-(3-(((cyclopropylmethyl)amino)(2,5-dimethylphenyl)methyl)phenyl)-3-(trifluoromethyl)-1H-pyrazole-5-carboxamide]: the Ki lay in the range of 0.1 to 50 nM.

`Cn1cc(C(NCC2CC2)c2cccc(NC(=O)c3cc(C(F)(F)F)nn3-c3cccc(CN)c3)c2)cn1` (centres unmarked) [104f, 1-(3-(aminomethyl)phenyl)-N-(3-((cyclopropylmethylamino)(1-methyl-1H-pyrazol-4-yl)methyl)phenyl)-3-(trifluoromethyl)-1H-pyrazole-5-carboxamide]: the Ki lay in the range of 0.1 to 50 nM.

As to `NCc1cccc(-n2nc(C(F)(F)F)cc2C(=O)Nc2cccc(C(CCC3CC3)N3CCCC3)c2)c1` (centres unmarked) [98b, 1-(3-(aminomethyl)phenyl)-N-(3-(3-cyclopropyl-1-(pyrrolidin-1-yl)propyl)phenyl)-3-(trifluoromethyl)-1H-pyrazole-5-carboxamide], the Ki is 0.1 to 50 nM.

With `CCCOc1ccc(C(NCC2CC2)c2cccc(NC(=O)c3cc(C(F)(F)F)nn3-c3cccc(CN)c3)c2)cc1` (centres unmarked) [127f, 1-(3-(Aminomethyl)phenyl)-N-(3-((cyclopropylmethylamino)(4-propoxyphenyl)methyl)phenyl)-3-(trifluoromethyl)-1H-pyrazole-5-carboxamide], the Ki fell in the range of 0.1 to 50 nM.

As to `NCc1cccc(-n2nc(C(F)(F)F)cc2C(=O)Nc2cccc(C(OCC3CCC3)c3ccccc3)c2)c1` (centres unmarked) [75a, 1-(3-(aminomethyl)phenyl)-N-(3-((cyclobutylmethoxy)(phenyl)methyl)phenyl)-3-(trifluoromethyl)-1H-pyrazole-5-carboxamide], the Ki was 50 to 100 nM.

`CS(=O)(=O)c1ccc(C(NCC2CC2)c2cccc(NC(=O)c3cc(C(F)(F)F)nn3-c3cccc(CN)c3)c2)cc1` (centres unmarked) [113f, 1-(3-(aminomethyl)phenyl)-N-(3-((cyclopropylmethylamino)(4-(methylsulfonyl)phenyl)methyl)phenyl)-3-(trifluoromethyl)-1H-pyrazole-5-carboxamide]: the Ki was 0.1 to 50 nM.

Turning to `Cc1ccc(C(NCC2CC2)c2cccc(NC(=O)c3cc(C(F)(F)F)nn3-c3cccc(CN)c3)c2)cc1` (centres unmarked) [122g, 1-(3-(aminomethyl)phenyl)-N-(3-(((cyclopropylmethyl)amino)(p-tolyl)methyl)phenyl)-3-(trifluoromethyl)-1H-pyrazole-5-carboxamide], the Ki was 0.1 to 50 nM.

For the molecule `COc1ccc(C(NCC2CC2)c2cccc(NC(=O)c3cc(C(F)(F)F)nn3-c3cccc(CN)c3)c2)c2ccccc12` (centres unmarked) [154e, 1-(3-(aminomethyl)phenyl)-N-(3-((cyclopropylmethylamino)(4-methoxynaphthalen-1-yl)methyl)phenyl)-3-(trifluoromethyl)-1H-pyrazole-5-carboxamide], the Ki lay within 0.1 to 50 nM.

As to `COC(CCC1CC1)(c1cccnc1)c1cccc(NC(=O)c2cc(C(F)(F)F)nn2-c2cccc(CN)c2)c1` (centres unmarked) [156c, 1-(3-(aminomethyl)phenyl)-N-(3-(3-cyclopropyl-1-methoxy-1-(pyridin-3-yl)propyl)phenyl)-3-(trifluoromethyl)-1H-pyrazole-5-carboxamide], the Ki was 0.1 to 50 nM.

In the case of `N=C(N)c1cccc(-n2nc(C(F)(F)F)cc2C(=O)Nc2cc(C(NCC3CC3)c3ccccc3)ccc2F)c1` (single isomer, unassigned; (-)) [227d, (−)-1-(3-carbamimidoylphenyl)-N-(5-((cyclopropylmethylamino)(phenyl)methyl)-2-fluorophenyl)-3-(trifluoromethyl)-1H-pyrazole-5-carboxamide], the Ki lay within 0.1 to 50 nM.
